Results from ChEMBL document CHEMBL6071138, “Design, synthesis, anti-tumor activity and mechanism of novel PROTACs as degraders of PD-L1 and inhibitors of PD-1/PD-L1 interaction” (Bioorg Med Chem, 2024).
The source made the active and inactive calls. The rule behind the calls is not given here.

How the values were obtained:
[1] = target: T1, Protein cereblon/Programmed cell death 1 ligand 1 (Homo sapiens) (UniProt Q9NZQ7+Q96SW2); assay: PROTAC activity at CRBN/PD-L1 in human HCC827 cells assessed as induction of PD-L1 protein degradation incubated for 24 hrs by Western blot analysis; type: cell-based; details: dose 0.25-10 µM
[2] = target: T1, Protein cereblon/Programmed cell death 1 ligand 1 (Homo sapiens); assay: PROTAC activity at CRBN/PD-L1 in human HCC827 cells assessed as induction of PD-L1 protein degradation at 20 uM measured within 24 hrs by Western blot analysis relative to control; type: cell-based
[3] = target: T1, Protein cereblon/Programmed cell death 1 ligand 1 (Homo sapiens); assay: PROTAC activity at CRBN/PD-L1 in human SK-N-AS cells assessed as induction of PD-L1 protein degradation at 0.25 to 10 uM incubated for 24 hrs by Western blot analysis; type: cell-based; details: dose 0.25-10 µM
[4] = target: T1, Protein cereblon/Programmed cell death 1 ligand 1 (Homo sapiens); assay: PROTAC activity at CRBN/PD-L1 in human 786-0 cells assessed as induction of PD-L1 protein degradation at 0.25 to 10 uM incubated for 24 hrs by Western blot analysis; type: cell-based; details: dose 0.25-10 µM
[5] = target: Protein cereblon/Programmed cell death 1 ligand 1 (Mus musculus) (UniProt Q9EP73+Q8C7D2); assay: PROTAC activity at CRBN/PD-L1 in mouse MC38 cells assessed as induction of PD-L1 protein degradation at 0.25 to 10 uM incubated for 24 hrs by Western blot analysis; type: cell-based; details: dose 0.25-10 µM
[6] = target: T1, Protein cereblon/Programmed cell death 1 ligand 1 (Homo sapiens); assay: PROTAC activity at CRBN/PD-L1 in human HCC827 cell membrane assessed as decrease in PD-L1 expression in membrane incubated for 24 hrs by flow cytometric analysis; type: cell membranes; details: dose 2.5-10 µM
[7] = target: T1, Protein cereblon/Programmed cell death 1 ligand 1 (Homo sapiens); assay: PROTAC activity at CRBN/PD-L1 in human HCC827 cell membrane assessed as decrease in PD-L1 expression in membrane at 10 uM incubated for 24 hrs by Western blotting; type: cell membranes
[8] = target: T1, Protein cereblon/Programmed cell death 1 ligand 1 (Homo sapiens); assay: PROTAC activity at CRBN/PD-L1 in human HCC827 cell cytoplasm assessed as decrease in PD-L1 expression in cytoplasm at 10 uM incubated for 24 hrs by Western blotting; type: subcellular
[9] = target: T1, Protein cereblon/Programmed cell death 1 ligand 1 (Homo sapiens); assay: PROTAC activity at CRBN/PD-L1 in human HCC827 cells assessed as induction of PD-L1 internalization at cell membrane by measuring decrease in fluorescence intensity of cell membrane at 10 uM incubated for 12 to 24 hrs by DAPI immunostaining based confocal scanning microscopic analysis; details: time 12-24 hrs
[10] = target: T1, Protein cereblon/Programmed cell death 1 ligand 1 (Homo sapiens); assay: PROTAC activity at CRBN/PD-L1 in human HCC827 cells assessed as induction of PD-L1 internalization at cell membrane by measuring increase in fluorescence intensity around nucleus at 10 uM incubated for 12 hrs by DAPI immunostaining based confocal scanning microscopic analysis
[11] = target: T1, Protein cereblon/Programmed cell death 1 ligand 1 (Homo sapiens); assay: PROTAC activity at CRBN/PD-L1 in human HCC827 cells assessed as induction of PD-L1 degradation at 10 uM preincubated with 5-((5-((2-chloro-2'-fluoro-[1,1'-biphenyl]-3-yl)methoxy)-2-(((2-hydroxyethyl)amino)methyl)phenoxy)methyl)nicotinonitrile for 4 hrs followed by compound addition and measured after 24 hrs by Western blotting; type: cell-based
[12] = target: T1, Protein cereblon/Programmed cell death 1 ligand 1 (Homo sapiens); assay: PROTAC activity at CRBN/PD-L1 in human HCC827 cells assessed as induction of PD-L1 degradation at 10 uM preincubated with MG132 for 4 hrs followed by compound addition and measured after 24 hrs by Western blotting; type: cell-based
[13] = target: T1, Protein cereblon/Programmed cell death 1 ligand 1 (Homo sapiens); assay: PROTAC activity at CRBN/PD-L1 in human HCC827 cells assessed as induction of PD-L1 degradation at 10 uM preincubated with pomalidomide for 4 hrs followed by compound addition and measured after 24 hrs by Western blotting; type: cell-based
[14] = target: T1, Protein cereblon/Programmed cell death 1 ligand 1 (Homo sapiens); assay: PROTAC activity at CRBN/PD-L1 in human HCC827 cells assessed as induction of PD-L1 degradation at 10 uM preincubated with bafilomycin A1 for 4 hrs followed by compound addition and measured after 24 hrs by Western blotting; type: cell-based
[15] = test system: HCC827; assay: Antitumor activity against human HCC827 cells co-cultured with PMA-activated human Jurkat T cells assessed as T cell mediated tumor killing by measuring survival rate at 10 uM incubated for 24 hrs by CCK8 assay relative to control; type: functional; details: read-out: Survival
[16] = test system: MC-38; assay: Antitumor activity against mouse MC38 cells implanted in female C57BL/6 mouse model assessed as tumor growth inhibition at 10 mg/kg, ip administered once daily for 15 days relative to control; type: functional; details: MC-38, 360 h, time 15 day, read-out: TGI
[17] = test system: MC-38; assay: Antitumor activity against mouse MC38 cells implanted in female C57BL/6 mouse model assessed as tumor growth inhibition at 20 mg/kg, ip administered once daily for 15 days relative to control; type: functional; details: MC-38, 360 h, time 15 day, read-out: TGI
[18] = Toxicity in female C57BL/6 mouse implanted with mouse MC38 cells assessed as effect on body weight at 10 to 20 mg/kg, ip administered once daily for 15 days; type: organism-based; details: in vivo, 360 h, dose 10-20 mg/kg, time 15 day
[19] = test system: Mus musculus; assay: In vivo PROTAC activity at CRBN/PD-L1 in female C57BL/6 mouse implanted with mouse MC38 cells assessed as decrease in PD-L1 protein expression in tumor at 10 to 20 mg/kg, ip administered once daily for 15 days by hematoxylin staining based immunohistochemistry; type: functional, organism-based; details: dose 10-20 mg/kg, time 15.0 day
[20] = test system: Mus musculus; assay: Immunoregulatory activity in female C57BL/6 mouse model implanted with mouse MC38 cells assessed as increase in CXCR3 mRNA level in tumor at 10 to 20 mg/kg, ip administered once daily for 15 days by qPCR analysis; type: functional, organism-based; details: dose 10-20 mg/kg, time 15.0 day
[21] = test system: Mus musculus; assay: Immunoregulatory activity in female C57BL/6 mouse model implanted with mouse MC38 cells assessed as increase in CXCL9 mRNA level in tumor at 10 to 20 mg/kg, ip administered once daily for 15 days by qPCR analysis; type: functional, organism-based; details: dose 10-20 mg/kg, time 15.0 day
[22] = test system: Mus musculus; assay: Immunoregulatory activity in female C57BL/6 mouse model implanted with mouse MC38 cells assessed as increase in CXCL10 mRNA level in tumor at 10 to 20 mg/kg, ip administered once daily for 15 days by qPCR analysis; type: functional, organism-based; details: dose 10-20 mg/kg, time 15.0 day
[23] = test system: Mus musculus; assay: Immunoregulatory activity in female C57BL/6 mouse model implanted with mouse MC38 cells assessed as increase in CD8+/CD4+ ratio in tumor at 10 to 20 mg/kg, ip administered once daily for 15 days by flow cytometric analysis; type: functional, organism-based; details: dose 10-20 mg/kg, time 15.0 day
[24] = test system: Mus musculus; assay: Immunoregulatory activity in female C57BL/6 mouse model implanted with mouse MC38 cells assessed as increase in CD8+/CD4+ ratio in lymph node at 10 to 20 mg/kg, ip administered once daily for 15 days by flow cytometric analysis; type: functional, organism-based; details: dose 10-20 mg/kg, time 15.0 day
[25] = test system: Mus musculus; assay: Immunoregulatory activity in female C57BL/6 mouse model implanted with mouse MC38 cells assessed as increase in granzyme B expression at 10 to 20 mg/kg, ip administered once daily for 15 days by hematoxylin staining based immunohistochemistry; type: functional, organism-based; details: dose 10-20 mg/kg, time 15.0 day
[26] = test system: Mus musculus; assay: Immunoregulatory activity in female C57BL/6 mouse model implanted with mouse MC38 cells assessed as increase in perforin expression at 10 to 20 mg/kg, ip administered once daily for 15 days by hematoxylin staining based immunohistochemistry; type: functional, organism-based; details: dose 10-20 mg/kg, time 15.0 day
[27] = target: Programmed cell death protein 1/Programmed cell death 1 ligand 1 (Homo sapiens, UniProt Q9NZQ7); assay: Inhibition of human PD-1/PD-L1 interaction by HTRF assay; type: protein-complex assay
[28] = Binding affinity to C-terminal fused with Fc region of human IgG1 recombinant human PD-L1 extracellular domain (1 to 239 residues) extracted from HEK293 cells assessed as dissociation constant by MST analysis; type: cell-free
[29] = target: T1, Protein cereblon/Programmed cell death 1 ligand 1 (Homo sapiens); assay: PROTAC activity at CRBN/PD-L1 in human HCC827 cells assessed as induction of PD-L1 protein degradation at 10 uM measured within 24 hrs by Western blot analysis relative to control; type: cell-based
[30] = test system: HCC827; assay: Antitumor activity against human HCC827 cells co-cultured with PMA-activated human Jurkat T cells assessed as T cell mediated tumor killing by measuring survival rate at 5 uM incubated for 24 hrs by CCK8 assay relative to control; type: functional; details: read-out: Survival
[31] = test system: HCC827; assay: Effect on PD-L1 protein expression in human HCC827 cells at 10 uM incubated for 24 hrs by Western blot analysis; type: functional, cell-based
[32] = target: von Hippel-Lindau disease tumor suppressor/Programmed cell death 1 ligand 1 (Homo sapiens) (UniProt P40337+Q9NZQ7); assay: PROTAC activity at VHL/PD-L1 in human HCC827 cells assessed as induction of PD-L1 protein degradation incubated for 24 hrs by Western blot analysis; type: cell-based; details: dose 0.25-10 µM
Chain of von Hippel-Lindau disease tumor suppressor/Programmed cell death 1 ligand 1 (Homo sapiens) (P40337 whole entry, looked up): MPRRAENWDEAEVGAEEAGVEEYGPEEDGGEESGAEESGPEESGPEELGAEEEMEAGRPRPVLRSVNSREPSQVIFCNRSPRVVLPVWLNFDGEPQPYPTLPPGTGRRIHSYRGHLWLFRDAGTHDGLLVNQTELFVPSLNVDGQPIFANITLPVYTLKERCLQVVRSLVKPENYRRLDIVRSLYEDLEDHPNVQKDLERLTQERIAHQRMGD
Chain of von Hippel-Lindau disease tumor suppressor/Programmed cell death 1 ligand 1 (Homo sapiens) (Q9NZQ7 whole entry, looked up): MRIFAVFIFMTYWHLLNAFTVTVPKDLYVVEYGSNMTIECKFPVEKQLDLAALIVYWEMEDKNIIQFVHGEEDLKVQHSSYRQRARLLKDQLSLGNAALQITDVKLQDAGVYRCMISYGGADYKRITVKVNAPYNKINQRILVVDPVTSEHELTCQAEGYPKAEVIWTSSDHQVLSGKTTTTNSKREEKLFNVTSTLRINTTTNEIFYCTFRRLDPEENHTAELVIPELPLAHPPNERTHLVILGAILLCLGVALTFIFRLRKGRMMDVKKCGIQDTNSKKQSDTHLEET

T1 sequence (Q96SW2 whole entry, looked up): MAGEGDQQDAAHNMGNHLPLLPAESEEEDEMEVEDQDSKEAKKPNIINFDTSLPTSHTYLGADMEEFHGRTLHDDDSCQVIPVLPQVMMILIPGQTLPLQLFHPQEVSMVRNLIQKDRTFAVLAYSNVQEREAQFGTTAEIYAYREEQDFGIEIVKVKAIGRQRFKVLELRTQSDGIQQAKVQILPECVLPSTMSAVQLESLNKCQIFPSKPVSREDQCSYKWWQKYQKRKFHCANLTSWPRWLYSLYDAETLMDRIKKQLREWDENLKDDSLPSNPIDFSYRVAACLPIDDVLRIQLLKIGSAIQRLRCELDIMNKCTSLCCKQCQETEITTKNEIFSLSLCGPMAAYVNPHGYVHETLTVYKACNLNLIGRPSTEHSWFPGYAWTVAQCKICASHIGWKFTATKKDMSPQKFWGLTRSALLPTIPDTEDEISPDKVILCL
T1 sequence (Q9NZQ7 whole entry, looked up): as the sequence (Q9NZQ7 whole entry, looked up) above
Chain of Programmed cell death protein 1/Programmed cell death 1 ligand 1 (Q15116 whole entry, the tested form may be a part): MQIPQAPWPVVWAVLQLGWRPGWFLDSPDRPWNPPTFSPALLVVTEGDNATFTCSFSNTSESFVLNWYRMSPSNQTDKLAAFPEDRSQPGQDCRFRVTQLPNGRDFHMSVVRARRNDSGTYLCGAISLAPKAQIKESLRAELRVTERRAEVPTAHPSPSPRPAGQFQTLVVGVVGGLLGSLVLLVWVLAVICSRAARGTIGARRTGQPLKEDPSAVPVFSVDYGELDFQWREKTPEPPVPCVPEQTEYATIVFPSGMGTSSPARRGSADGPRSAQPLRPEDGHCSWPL
Chain of Programmed cell death protein 1/Programmed cell death 1 ligand 1 (Q9NZQ7 whole entry, the tested form may be a part): as the sequence (Q9NZQ7 whole entry, looked up) above
Chain of Protein cereblon/Programmed cell death 1 ligand 1 (Mus musculus) (Q8C7D2 whole entry partner): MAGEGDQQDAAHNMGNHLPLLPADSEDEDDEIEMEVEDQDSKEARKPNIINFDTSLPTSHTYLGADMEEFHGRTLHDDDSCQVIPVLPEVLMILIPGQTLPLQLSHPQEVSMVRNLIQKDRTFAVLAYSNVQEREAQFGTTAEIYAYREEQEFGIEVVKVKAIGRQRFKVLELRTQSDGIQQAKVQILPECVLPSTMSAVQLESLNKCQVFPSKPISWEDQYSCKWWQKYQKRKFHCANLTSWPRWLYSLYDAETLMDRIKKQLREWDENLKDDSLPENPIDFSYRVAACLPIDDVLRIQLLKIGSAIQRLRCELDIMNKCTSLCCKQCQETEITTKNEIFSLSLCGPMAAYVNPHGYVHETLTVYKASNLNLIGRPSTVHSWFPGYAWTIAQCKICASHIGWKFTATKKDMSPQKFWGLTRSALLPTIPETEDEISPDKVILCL
Chain of Protein cereblon/Programmed cell death 1 ligand 1 (Mus musculus) (Q9EP73 19-290 limits assumed): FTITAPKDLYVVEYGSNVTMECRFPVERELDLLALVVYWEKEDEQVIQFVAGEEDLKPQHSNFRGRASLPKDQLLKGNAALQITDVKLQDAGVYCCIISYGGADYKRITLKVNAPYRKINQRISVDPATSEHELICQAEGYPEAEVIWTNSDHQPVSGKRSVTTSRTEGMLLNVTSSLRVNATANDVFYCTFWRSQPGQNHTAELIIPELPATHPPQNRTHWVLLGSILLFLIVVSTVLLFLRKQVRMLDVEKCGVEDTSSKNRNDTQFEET

SMILES: N#Cc1cncc(COc2cc(OCc3cccc(-c4ccccc4F)c3Cl)ccc2CNCCOCCOCCNc2cccc3c2C(=O)N(C2CCC(=O)NC2=O)C3=O)c1 (stereo not given)
- Activity [1]: Dose-Dependent Effect
- Activity [2]: 60.9%
- Activity [3]: Active
- Activity [4]: Active
- Activity [5]: Active
- Activity [6]: Dose-Dependent Effect
- Activity [7]: Active
- Activity [8]: Active
- Activity [9]: Active
- Activity [10]: Active
- Activity [11]: inactive
- Activity [12]: inactive
- Activity [13]: inactive
- Activity [14]: inactive
- viability at 10 µM [15]: 50.6%
- inhibition in vivo at 10 mg/kg [16]: 48.7%
- inhibition in vivo at 20 mg/kg [17]: 57.4%
- Activity [18]: Non-Toxic
- Activity [19]: Active
- Activity [20]: Active
- Activity [21]: Active
- Activity [22]: Active
- Activity [23]: Active
- Activity [24]: Active
- Activity [25]: Active
- Activity [26]: Active
- IC50 [27]: 197 nM
- Kd [28]: 301 nM

SMILES: N#Cc1cncc(COc2cc(OCc3cccc(-c4ccccc4F)c3Cl)ccc2CNCc2cn(CCCCCC(=O)Nc3cccc4c3CN(C3CCC(=O)NC3=O)C4=O)nn2)c1 (stereo not given)
- Activity [1]: Dose-Dependent Effect

SMILES: N#Cc1cncc(COc2cc(OCc3cccc(-c4ccccc4F)c3Cl)ccc2CNCCCCCNc2cccc3c2C(=O)N(C2CCC(=O)NC2=O)C3=O)c1 (stereo not given)
- Activity [1]: Dose-Dependent Effect

SMILES: N#Cc1cncc(COc2cc(OCc3cccc(-c4ccccc4F)c3Cl)ccc2CNCCOCCOCCOCCNc2cccc3c2C(=O)N(C2CCC(=O)NC2=O)C3=O)c1 (stereo not given)
- Activity [1]: Dose-Dependent Effect
- Activity [29]: 58%
- Activity [3]: Active
- Activity [4]: Active
- Activity [5]: Active
- Activity [6]: Dose-Dependent Effect
- Activity [7]: Active
- Activity [8]: Active
- Activity [9]: Active
- Activity [10]: Active
- Activity [11]: inactive
- Activity [12]: inactive
- Activity [13]: inactive
- Activity [14]: inactive
- viability at 5 µM [30]: 73.2%
- inhibition in vivo at 10 mg/kg [16]: 34.6%
- inhibition in vivo at 20 mg/kg [17]: 54.9%
- Activity [18]: Non-Toxic
- Activity [19]: Active
- Activity [20]: Active
- Activity [21]: Active
- Activity [22]: Active
- Activity [23]: Active
- Activity [24]: Active
- Activity [25]: Active
- Activity [26]: Active
- IC50 [27]: 219 nM
- Kd [28]: 251 nM

SMILES: N#Cc1cncc(COc2cc(OCC3C=CC=C(c4ccccc4F)C3Cl)ccc2CNCCOCCOCCOCCOCCOCCOCCC(=O)Nc2cccc3c2CN(C2CCC(=O)NC2=O)C3=O)c1 (stereo not given)
- Activity [1]: Dose-Dependent Effect

SMILES: N#Cc1cncc(COc2cc(OCc3cccc(-c4ccccc4F)c3Cl)ccc2CNCCO)c1
- Activity [31]: inactive
- Kd [28]: 20.2 nM

SMILES: Cc1ncsc1-c1ccc([C@H](C)NC(=O)[C@@H]2C[C@@H](O)CN2C(=O)[C@@H](NC(=O)CCCNCc2ccc(OCc3cccc(-c4ccccc4F)c3Cl)cc2OCc2cncc(C#N)c2)C(C)(C)C)cc1
- Activity [32]: Dose-Dependent Effect

SMILES: N#Cc1cncc(COc2cc(OCc3cccc(-c4ccccc4F)c3Cl)ccc2CNCCCCCCCCNc2cccc3c2C(=O)N(C2CCC(=O)NC2=O)C3=O)c1 (stereo not given)
- Activity [1]: Dose-Dependent Effect

SMILES: Nc1cccc2c1C(=O)N(C1CCC(=O)NC1=O)C2=O (stereo not given)
- Activity [31]: inactive

SMILES: Cc1ncsc1-c1ccc([C@H](C)NC(=O)[C@@H]2C[C@@H](O)CN2C(=O)[C@@H](NC(=O)CCOCCOCCOCCOCCNCc2ccc(OCc3cccc(-c4ccccc4F)c3Cl)cc2OCc2cncc(C#N)c2)C(C)(C)C)cc1
- Activity [32]: Dose-Dependent Effect
